Laboratory results taken from PMC5691054, “An unexpected protein interaction promotes drug resistance in leukemia” (Nature Communications, 2017).
Entries after “also recorded” stand apart in the source; their conditions may differ.

Legend:
MO7e cells [1] = assay: Cytarabine cytotoxicity in MO7e cells; type: cell-based, Human; settings: in words
Experimental: MO7e cells were seeded at 1500 cells per well of a 96-well plate. Cells were then treated with Cytarabine at increasing concentrations ranging from 0.5 to 500 μM for 4 h in serum-free media. Cells were washed three times with PBS and replaced with fresh complete media for 68 h. Cell viability analysis was determined using CellTiter Glo. Where applicable, cells were treated with 10 nM Antimycin A. IC50 values were calculated using GraphPad Prism.

MO7e cells [2] = assay: 6MP cytotoxicity in MO7e cells and CRISPR knock-outs; type: cell-based, Human; settings: MO7e vs. ABCC4 KO; Antimycin A 10 nM, in words
Experimental: (§1) HEK293 cells transfected with ABCC4 or ABCC4ΔC in the presence or absence of MPP1, MO7e, and Meg01 cells were treated with 10 concentrations of 6MP, ranging from 1 to 1000 µM, for 96 h. Cell viability analysis was determined using CellTiter Glo (Promega). Where applicable, cell penetrating peptides conjugated to the PDZ-binding motif of ABCC4 (labeled either ABCC4-PDZ or ABCC4ΔC) were added to the cells at 20 μM. Media was changed daily and new ABCC4-PDZ/ABCC4ΔC peptide and 6MP was added. IC50 values were calculated using GraphPad Prism.
CRISPR-Cas9 plasmids containing gRNAs against ABCC4 ([…]) and MPP1 ([…]) were purchased from Sigma Aldrich. MO7e cells were transiently transfected with constructs containing the gRNA, Cas9 Nickase, and a flurophore. Forty-eight hours after transfection, cells were sorted for fluorescent positive cells and single cells were sorted into individual wells of a 96-well plate. Single-sorted cells were allowed to expand and deletion of the gene of interest was verified by immunoblotting.
(§2) The Meg01, MO7e, and ABCC4 KO MO7e cell lines were plated at 1500 cells per well in a 96-well plate. Cells were treated with 10 concentrations of Antimycin A (Santa Cruz) ranging from 0.01 to 1000 μM. Cell viability was determined using CellTiter Glo (Promega). Meg01, MO7e, and ABCC4 KO MO7e cells in the presence or absence of 10 nM Antimycin A were treated with 10 concentrations of 6MP, ranging from 1 to 1000 µM, for 96 h. Cell viability analysis was determined using CellTiter Glo. IC50 values were calculated using GraphPad Prism.

[3] = system: ABCC4 plasma membrane localization in HEK293 cells expressing MPP1 and GFP-ABCC4; assay: ABCC4 plasma membrane localization (confocal microscopy); type: cell-based, Human; settings: in words; confocal microscopy
Experimental: Peptides containing or lacking the ABCC4-PDZ motif were fused with the cell penetrating HIV-TAT peptide. These peptides were tested for their effect on ABCC4 plasma membrane localization. HEK293 cells were transfected with MPP1 and GFP-ABCC4 and the ER protein, calreticulin. The plasma membrane was counter-stained with wheat-germ-agglutinin (WGA) labeled with Alexa647 after treatment with either ABCC4-PDZ or ABCC4ΔC peptide.
HEK293 cells were seeded on chambered coverglass slides (LAB-TEK) 48 h before transfection with plasmid DNA (250 ng) encoding pAc-GFP-ABCC4 or ABCC4ΔC and pCal plasmid encoding the ER resident protein calreticulin conjugated to RFP (Origene). Transfection was performed using Lipofectamine 2000 as per the manufacturer’s instructions. Immediately prior to visualizing cells, cells were counterstained with the plasma membrane marker wheat-germ agglutinin (WGA) conjugated to Alexa-647 (Invitrogen). All confocal microscopy images were acquired on a 3i Marianas system configured with an Yokagowa CSU-X spinning disk confocal microscope utilizing a ×63 Zeiss objective, using the 488 (GFP), 561 (RFP), and 660 (far red) laser lines.

Meg01 cells = assay: 6MP cytotoxicity in Meg01 cells; type: cell-based, Human; settings: Antimycin A 10 nM, in words
Experimental: as §1, §2

[4] = system: mitochondrial function of MO7e and ABCC4 KO MO7e cells; assay: Mitochondrial function (relative ATP, TMRE, MitoTracker Green); type: cell-based, Human; settings: 10 nM
Experimental: WT and ABCC4 KO MO7e cells were treated with DMSO or 10 nM Antimycin A before incubation with TMRE or MitoTracker Green (Life Technologies) for 15 min. After incubation, cells were analyzed with BD Biosciences flow cytometer and mean fluorescence intensity was calculated. Relative ATP amounts were determined by the CellTiter Glo Assay.

[5] = Antimycin A cytotoxicity in MO7e and ABCC4 KO MO7e cells; type: cell-based, Human; settings: human, 0.01 to 1000 μM, CellTiter Glo, triplicate
Experimental: (§3) The Meg01, MO7e, and ABCC4 KO MO7e cell lines were plated at 1500 cells per well in a 96-well plate. Cells were treated with 10 concentrations of Antimycin A (Santa Cruz) ranging from 0.01 to 1000 μM. Cell viability was determined using CellTiter Glo (Promega). […] Cell viability analysis was determined using CellTiter Glo. IC50 values were calculated using GraphPad Prism.

MO7e cells [6] = assay: as above; type: cell-based, Human; settings: MO7e; 6MP 10 μM (sublethal), in words
Experimental: as §3

[7] = system: murine hematopoietic progenitor cells (HPC); assay: Hematopoietic progenitor cell serial replating in methylcellulose
Experimental: In these experiments, littermates were used as controls. Bone marrow from 8- to 12-week-old female virgin C57/BL6 mice were harvested. Progenitors were enriched by incubating with lineage-PE antibodies (CD4, CD8, Mac1, Gr1, NK1.1, B220, and Ter119) and separated using AutoMACS Pro (Miltenyi). Hematopoetic progenitor cells were cultured in the presence of recombinant murine SCF (rmSCF), IL3 (rmIL3), and IL6 (rmIL6) (Peprotech; all 50 ng/ml) for 48 h before transduction on RetroNectin (Takara) coated plates. Retroviral supernatant containing media was produced by transient transfection of HEK293T cells with MSCV based retroviral plasmids encoding either MYCN-ires-YFP or MPP1-ires-CFP as previously described[35]. Forty-eight hours post transduction, cells were harvested, sorted for either YFP or CFP expression, and plated on methylcellulose containing IL3, IL6, SCF, and EPO (Stem Cell Technologies). Colonies were counted after 7 days growth at 37 °C, harvested, and replated.

[8] = system: primary AML cells from adult patients; assay: Annexin V/PI apoptosis in primary AML patient samples; type: cell-based, Human; settings: 50 or 100 µM cytarabine + 10 nM Antimycin A 4 h, then 44 h ± Antimycin A; triplicates; in words
Experimental: Primary AML cells from adult patients were treated with either vehicle, 50 or 100 µM cytarabine, 10 nM Antimycin A, or the combination of 50 or 100 µM cytarabine + 10 nM Antimycin A for 4 h. Post treatment, the cells were washed with fresh media (2×) and resuspended in the absence or presence of 10 nM Antimycin A and cultured for an additional 44 h (for a total treatment time of 48 h). The cells were then stained with Annexin V-fluorescein isothiocyanate (FITC)/propidium iodide (PI) apoptosis Kit (Beckman Coulter; Brea, CA, USA). The stage of apoptotic cells (Annexin V-positive, but early or late apoptosis) is identified by the proportion of AnnexinV+/PI− (early apoptosis) and Annexin V+/PI+ (late apoptosis) cells. This experiment was performed once in triplicates (presented as average ± SEM) due to the limited sample availability. Patient samples were selected based on the availability of an adequate number of cells to perform the assay.

## CCCCCC[C@H]1C(=O)O[C@H](C)[C@H](NC(=O)c2cccc(NC=O)c2O)C(=O)O[C@@H](C)[C@@H]1OC(=O)CC(C)C [Antimycin A]
MO7e cells [1]; MO7e vs. MO7e-ABCC4 knockout, Antimycin A 10 nM
  effect of Antimycin A on cytarabine sensitivity: specifically sensitized MO7e cells to Cytarabine, but not MO7e-ABCC4 knockout cells; also recorded: specifically sensitizes ABCC4 expressing MO7e cells, but not ABCC4 KO cells
MO7e cells [1]; peer review file
  effect of co-treatment on IC50 for cytarabine: reduce the IC50 for cytarabine
MO7e cells [2]
  effect of Antimycin A on 6MP sensitivity: shifted the 6MP dose–response curve to the left, but only for cells harboring ABCC4, not ABCC4 KO cells; also recorded: specifically sensitizes ABCC4 expressing MO7e cells, but not ABCC4 KO cells
[3]
  effect on ABCC4 plasma membrane localization: ABCC4 relocalized from the plasma membrane to the cytosol; also recorded: causes ABCC4 to relocalize from the plasma membrane
Meg01 cells
  effect of Antimycin A on 6MP sensitivity: sensitized to 6MP by Antimycin A (10 nM)
[4]; CellTiter Glo, triplicate
  relative ATP: Equal relative
[4]; in words
  effect on mitochondrial function: does not selectively affect the mitochondrial; also recorded: minimal effect on mitochondria; also recorded: not exclusively disruptive to mitochondrial function in cells lacking or containing ABCC4
[5]; MO7e ABCC4 KO cells, MO7e ABCC4 KO
  IC50: 1.7 µM
[5]; MO7e cells, MO7e
  IC50: 2.2 µM
MO7e cells [6]
  Antimycin A cytotoxicity in combination with non-cytotoxic 6MP: sensitizes MO7e cells to Antimycin A; also recorded: shifted the Antimycin A survival curve to the left indicating greater toxicity when an ABCC4 substrate was present
[7]; HPC transduced with MPP1, Antimycin A 10 nM, triplicate
  effect on MPP1-driven methylcellulose replating: blocked replating of MPP1 overexpressing HSC; also recorded: attenuated
[7]; normal hematopoietic progenitors, Antimycin A 10 nM (peer review file)
  effect on colony formation of normal hematopoietic progenitors: did not effect; also recorded: does not reduce the
[8]
  Antimycin A enhancement of cytarabine-induced apoptosis in primary AML samples: Three of the 5 patients; also recorded: enhanced cytarabine cytoxicity in three primary AML patient samples; also recorded: did not show enhancement on cytarabine-induced apoptosis; also recorded: increased Annexin V^+ percentage of cells with combination treatment of Antimycin A and cytarabine vs cytarabine alone
